Results on six compounds are retold here after US9586985B2, “Organic compounds as proantigens for natural killer T cells” (Callaghan Innovation Research Limited, priority 2012, dated 2017).

“Also recorded” adds a separate entry of the source.

Data set [1] can be described thus: HPLC-ESI-MSMS quantification of α-GalCer in test samples. Type of data set: physicochemical. The method, then:
Quantification of the amount of α-GalCer in various test samples of compounds of the invention is made by HPLC-ESI-MSMS analysis using a Waters 2795 HPLC and a Waters Q-TOF Premier™ Tandem Mass Spectrometer. The chromatography used a Phenomenex Kinetex C18 […] 3.0×50 mm column eluting with isocratic methanol containing 10 mM ammonium formate+0.5% formic acid at a flow rate of 0.2 mL/min. α-GalCer is monitored by selective reactant monitoring of 858.7 to 696.7 Da. The estimate of amount of α-GalCer is made by comparison of ion count integrals to a standard curve run on the same day or by comparison to test samples spiked with a known amount of α-GalCer.
The level of α-GalCer is determined on freshly reconstituted formulated samples unless otherwise stated. The estimated maximum level of α-GalCer for key compounds is given below.

The subject of data set [2] is NKT cells / CD11c+ dendritic cells. Kind of data set: CD86 expression on splenic dendritic cells after injection (DC activation as measure of NKT cell activation). The class given is in vivo, C57BL/6 mice. The following applies: 200 ng i.v. (FIG. 7: molar equivalent of 200 ng α-GalCer), spleens removed 20 h later, flow cytometry. The method, then:
Groups of C57BL/6 mice (n=3) are injected intravenously with 200 ng of the indicated compounds and then the spleens are removed 20 h later for the analysis of CD86 expression on CD11c+ dendritic cells by antibody labelling and flow cytometry. Mean fluorescence index±SEM are presented.
Groups of C57BL/6 mice (n=3) are injected intravenously with 200 ng of α-GalCer or an equivalent molar amount of the indicated compounds and then the spleens are removed 20 h later for the analysis of CD86 expression on CD11c+ dendritic cells by antibody labelling and flow cytometry. Mean fluorescence index±SEM are presented. (Compound CN158A1b=CN158 formulated in accordance with Example 15. Compound CN158A=CN158 in water.)
Each compound of the invention is supplied as formulated product (see example 12), and diluted in phosphate-buffered saline (PBS) for injection (200 ng/mouse) by intravenous injection into the lateral tail vein. In humans the expected therapeutic dose lies in the 50-4800 (μg/m^2) range (Giaccone, Punt et al. 2002). Note, 200 ng in a mouse is a human equivalent dose of 30 μg/m^2.
All antibody labeling is performed on ice in FACS buffer (PBS supplemented with 1% FCS, 0.05% sodium azide, and 2 mM EDTA). Non-specific FcR-mediated antibody staining is blocked by incubation for 10 min with anti-CD16/32 Ab (24G2, prepared in-house from hybridoma supernatant). […]
On the technique in general: Flow cytometry measures light scatter and fluorescence of single cells or particles in a stream.

The subject of data set [3] is cytokines IL-12p70, IL-4 and IFN-g. Kind of data set: Cytokine release into serum after injection (cytokine bead array). The class given is in vivo, C57BL/6 mice. The following applies: for cytokine profile in vivo compared to α-GalCer: 200 ng i.v. or molar equivalent. The method, then:
Groups of C57BL/6 mice (n=3 per group) are injected intravenously with 200 ng of the indicated compounds, and then the serum is collected at the indicated times for analysis of cytokine levels by cytokine bead array technology.
Groups of C57BL/6 mice (n=3 per group) are injected intravenously with 200 ng of α-GalCer or an equivalent molar amount of the indicated compounds, and then the serum is collected at the indicated times for analysis of cytokine levels by cytokine bead array technology. (Compound CN158A1b=CN158 formulated in accordance with Example 15; Compound CN158A=CN158 in water.)
Blood is collected from the lateral tail vein at different time intervals after glycolipid administration. Serum is collected after blood has clotted, and levels of cytokines IL-12p70, IL-4 and IFN-g are assessed by cytokine bead array technology (Bioplex, Biorad), according to the manufacturer's instructions.

The subject of data set [4] is B16.OVA melanoma cells. Kind of data set: Anti-tumour activity against subcutaneous B16.OVA tumours, given with OVA protein. The following applies: i.v. with 200 μg OVA protein seven days after tumour challenge. The class given is in vivo, C57BL/6 mice. The method, then: Progression of subcutaneous B16.OVA tumours is monitored in animals that are treated seven days after tumour challenge with intravenous OVA protein together with the indicated compounds, or treated with PBS. The mean tumour sizes per group (n=5)±SEM are shown.
Progression of subcutaneous B16.OVA tumours is monitored in animals that are treated seven days after tumour challenge with intravenous OVA protein together with the indicated compounds, or treated with PBS. The mean tumour sizes per group (n=5)±SEM are shown. […] (Compound CN158A=CN158 in water.)
Groups of C57BL/6 mice (n=5) receive a subcutaneous injection into the flank of 1×10^5 B16.OVA melanoma cells, which express a cDNA encoding the chicken ovalbumin (OVA) sequence. The different groups are treated 7 days later, when tumours are fully engrafted, by intravenous injection of one of the following; 200 μg OVA protein together with 200 ng α-GalCer, 200 μg OVA protein together with 200 ng of a compound of the invention, or PBS. Mice are monitored for tumour growth every 3-4 days, and tumour size for each group is calculated as the mean of the products of bisecting diameters (±SEM). Measurements are terminated for each group when the first animal develops a tumour exceeding 200 mm^2.

For data set [5] the following is noted: literature statement; cited from earlier work.
Data set [6] concerns SIINFEKL-specific T cells. The experiment in a line: Peptide-specific T cell proliferation in vivo (adjuvant with OVA). The conditions noted are these: co-administered i.v. with OVA, molar dose equivalent to α-GalCer, blood after seven days. Further details: species or system C57BL/6 mice. The method, then:
The compounds are injected to give the equivalent molar dose as compared to α-GalCer. To increase sensitivity of the assay, all mice are initially donated a cohort of 10,000 SIINFEKL-specific T cells from a transgenic mouse encoding a T cell receptor for this antigen (OT-1 mice), which is undertaken by intravenous injection of the cells one day before the vaccines are administered. […] It is therefore possible to enumerate SIINFEKL-specific T cells in blood by flow cytometry using antibodies for CD45.1 together with antibodies for the transgenic T cell receptor (Vα2). […] Control animals are injected with the diluent phosphate-buffered saline (PBS). Each dot represents a different animal; mean per treatment group±SEM are presented. ***p<0.001, ** p<0.01, * p<0.05.
Pooled lymph node cell suspensions are prepared from animals of a cross between OT-I mice, which express a transgenic T cell receptor (TCR) specific for the ovalbumin epitope SIINFEKL in the context of H-2K^b molecules, and B6.SJL-Ptprc^a Pepc^b/BoyJ mice, which are congenic with C57BL/6 mice for the CD45.1^+ marker. The samples are enriched for CD8^+ cells using antibody coated magnetic beads (Miltenyi), and then transferred into C57BL/6 mice (1×10^4 per mouse). Groups of recipient animals (n=5) are immunized with compounds of the invention one day later. Doses are chosen to provide equivalent molar values of SIINFEKL peptide. […]

Data set [7] can be described thus: Water solubility. The class given is physicochemical.
Where [8] appears, read: non-formulated / unformulated sample (CN158*: aqueous solution).
[9] abbreviates: freshly reconstituted formulated sample, estimated maximum level.

`CCCCCCCCCCCCCCCCCCCCCCCCCC(=O)O[C@H](CCCCCCCCCCCCCC)[C@@H](O)[C@@H](N)CO[C@H]1O[C@H](CO)[C@H](O)[C@H](O)[C@H]1O` [CN089, (2S,3S,4R)-2-Amino-1-O-α-D-galactopyranosyl-4-O-hexacosanoyl octadecane-1,3,4-triol]: the “conversion of CN089 to α-GalCer after formulation” value in data set [1] (within 1 hour of formulation, LCMSMS) is given as “approximately 50%”. Also, the “DC activation: CD86 expression on splenic CD11c+ dendritic cells” value in data set [2] is “potently activates DCs”.
As for `CCCCCCCCCCCCCCCCCCCCCCCCCC(=O)O[C@H](CCCCCCCCCCCCCC)[C@@H](O)[C@H](CO[C@H]1O[C@H](CO)[C@H](O)[C@H](O)[C@H]1O)NC(=O)OCOP(=O)(O)O` [CN131, (2S,3S,4R)-1-O-α-D-Galactopyranosyl-4-O-hexacosanoyl-2-phosphoryloxymethoxycarbonylamino octadecane-1,3,4-triol], in data set [1] (setting [8]), the “Max α-GalCer (ppm)” value was 6,000 (analysis on non- ppm and the “Max α-GalCer/injection” value came out at 1.2 ng.
`CCCCCCCCCCCCCCCCCCCCCCCCCC(=O)O[C@H](CCCCCCCCCCCCCC)[C@@H](O)[C@H](CO[C@H]1O[C@H](CO)[C@H](O)[C@H](O)[C@H]1O)NC(=O)OCOC(C)=O` [CN136, (2S,3S,4R)-2-Acetoxymethoxycarbonylamino-1-O-α-D-galactopyranosyl-4-O-hexacosanoyl octadecane-1,3,4-triol]: in data set [1] (setting [9]), the “Max α-GalCer (ppm)” value is recorded as 1,000 ppm and the “Max α-GalCer/injection” value was 0.2 ng.
Regarding `CCCCCCCCCCCCCCCCCCCCCCCCCC(=O)N[C@@H](CO[C@H]1O[C@H](CO)[C@H](O)[C@H](O)[C@H]1O)[C@H](O)[C@H](O)CCCCCCCCCCCCCC` [α-GalCer, α-Galactosylceramide, reference compound], in data set [3] (after injection, mice), the “time of peak IFN-γ level in serum” value is 12 h, the “time of peak IL-4 level in serum” value lay in the range of 2 to 3 h and the “time of peak IL-12p70 level in serum” value turned out to be 6 h. In addition, the “anti-tumour activity: growth of established B16.OVA tumours” value in data set [4] is given as “provides therapeutic anti-tumour activity”. The “water solubility (in words)” value in data set [5] is reported as “low water solubility; also recorded: poor solubility”. In data set [6], the “SIINFEKL-specific T cell response in blood (adjuvant activity)” value is “induces a population of SIINFEKL-specific T cells”.
As for “(2S,3S,4R)-1-O-α-D-Galactopyranosyl-4-hexacosanoyl-2-((4-(2-methoxy(poly(2-ethoxy))imino)pentanoyloxy)methoxycarbonylamino) octadecane-1,3,4-triol [CN147]”, in data set [1] (setting [9]), the “Max α-GalCer (ppm)” value is given as 615 ppm and the “Max α-GalCer/injection” value is 0.123 ng. Also, the “cytokine profile in vivo compared to α-GalCer” value in data set [3] (FIGS. 3 and 8) is reported as “different cytokine profiles”. In data set [3] (200 ng i.v., FIG. 3), the “course of IL-12p70 level in serum” value is on record as “still increasing through 6 to 12 h” and the “ratio of IFN-γ to IL-4 in serum compared to α-GalCer” value is “higher ratio of IFN-γ to IL-4 than that of α-GalCer”. For the same compound, in data set [7], the water solubility is about 0.5 mg/mL.
For the compound “(2S,3S,4R)-1-O-α-D-Galactopyranosyl-4-hexacosanoyl-2-((4-(ω-methoxy(poly(ethyleneoxy))imino)pentanoyloxy)methyleneoxycarbonylamino) octadecane-1,3,4-triol [CN158]”, the “Max α-GalCer (ppm)” value in data set [1] (setting [9]) is given as 180 ppm; in data set [1] (setting [8]) it was 170 ppm. Also, the “Max α-GalCer/injection” value is 0.25 ng in data set [1] (setting [9]) and 0.24 ng in data set [1] (setting [8]). Further, the “cytokine profile in vivo compared to α-GalCer” value in data set [3] (FIGS. 3 and 8) is reported as “different cytokine profiles”. Further, the “overall levels of systemic cytokine production” value in data set [3] (200 ng α-GalCer or equivalent i.v., FIGS. 3 and 8) is “no systemic cytokines are detected; also recorded: No detectable cytokines are observed”. The “anti-tumour activity: growth of established B16.OVA tumours” value in data set [4] is reported as “provides therapeutic anti-tumour activity”. In data set [7], this compound displayed a water solubility of about 38 mg/mL. The “SIINFEKL-specific T cell response in blood (adjuvant activity)” value in data set [6] is reported as “induces a similar T cell expansion”.
